Experimental data reported in patent US9586949B2, “Aza-heteroaryl compounds as PI3K-gamma inhibitors” (Incyte Corporation, priority 2015, dated 2017).
Counter-ions that a name gives are not always drawn.

Legend:
[1] = molecular target: PI3Kγ (p110γ) Recombinant Human Protein (Homo sapiens (Human), UniProt P48736); assay: PI3K-γ Scintillation Proximity Assay; type: biochemical; details: 20 μM PIP2, 2 μM ATP, 13 nM PI3Kγ, 120 min; read-out: PI3K-gamma SPA IC50
Method: [γ-^33P]ATP (10 mCi/mL) and Wheat Germ Agglutinin (WGA) YSi SPA Scintillation Beads was purchased from Perkin-Elmer (Waltham, Mass.). […] PI3Kγ (p110γ) Recombinant Human Protein was purchased from Life technology (Grand Island, N.Y.). ATP, MgCl2, DTT, EDTA, MOPS and CHAPS were purchased from Sigma-Aldrich (St. Louis, Mo.).
The kinase reaction was conducted in polystyrene 384-well Greiner Bio-one white plate from Thermo Fisher Scientific in a final volume of 25 μL. Inhibitors were first diluted serially in DMSO and added to the plate wells before the addition of other reaction components. The final concentration of DMSO in the assay was 2%. The PI3Kγ assay was carried out at room temperature in 20 mM MOPS, pH 6.7, 10 mM MgCl2, 5 mM DTT and CHAPS 0.03%. Reactions were initiated by the addition of ATP, the final reaction mixture consisted of 20 μM PIP2, 2 μM ATP, 0.5 μCi [γ-^33P] […] The final concentration of SPA beads is 1.0 mg/mL. After the plate sealing, plates were shaken overnight at room temperature and centrifuged at 1500 rpm for 10 min, the radioactivity of the product was determined by scintillation counting on Topcount (Perkin-Elmer). IC50 determination was performed by fitting the curve of percent of the solvent control activity versus the log of the inhibitor concentration using the GraphPad Prism 6.0 software.

[2] = molecular target: PI3Kδ (p110δ/p85α) Recombinant Human Protein (Homo sapiens (Human), UniProt O00329); assay: PI3Kδ Scintillation Proximity Assay; type: biochemical; details: 20 μM PIP2, 2 μM ATP, 3.4 nM PI3Kδ, 120 min; read-out: PI3K-delta SPA IC50
Sequence of PI3Kδ (p110δ/p85α) Recombinant Human Protein (O00329 whole entry): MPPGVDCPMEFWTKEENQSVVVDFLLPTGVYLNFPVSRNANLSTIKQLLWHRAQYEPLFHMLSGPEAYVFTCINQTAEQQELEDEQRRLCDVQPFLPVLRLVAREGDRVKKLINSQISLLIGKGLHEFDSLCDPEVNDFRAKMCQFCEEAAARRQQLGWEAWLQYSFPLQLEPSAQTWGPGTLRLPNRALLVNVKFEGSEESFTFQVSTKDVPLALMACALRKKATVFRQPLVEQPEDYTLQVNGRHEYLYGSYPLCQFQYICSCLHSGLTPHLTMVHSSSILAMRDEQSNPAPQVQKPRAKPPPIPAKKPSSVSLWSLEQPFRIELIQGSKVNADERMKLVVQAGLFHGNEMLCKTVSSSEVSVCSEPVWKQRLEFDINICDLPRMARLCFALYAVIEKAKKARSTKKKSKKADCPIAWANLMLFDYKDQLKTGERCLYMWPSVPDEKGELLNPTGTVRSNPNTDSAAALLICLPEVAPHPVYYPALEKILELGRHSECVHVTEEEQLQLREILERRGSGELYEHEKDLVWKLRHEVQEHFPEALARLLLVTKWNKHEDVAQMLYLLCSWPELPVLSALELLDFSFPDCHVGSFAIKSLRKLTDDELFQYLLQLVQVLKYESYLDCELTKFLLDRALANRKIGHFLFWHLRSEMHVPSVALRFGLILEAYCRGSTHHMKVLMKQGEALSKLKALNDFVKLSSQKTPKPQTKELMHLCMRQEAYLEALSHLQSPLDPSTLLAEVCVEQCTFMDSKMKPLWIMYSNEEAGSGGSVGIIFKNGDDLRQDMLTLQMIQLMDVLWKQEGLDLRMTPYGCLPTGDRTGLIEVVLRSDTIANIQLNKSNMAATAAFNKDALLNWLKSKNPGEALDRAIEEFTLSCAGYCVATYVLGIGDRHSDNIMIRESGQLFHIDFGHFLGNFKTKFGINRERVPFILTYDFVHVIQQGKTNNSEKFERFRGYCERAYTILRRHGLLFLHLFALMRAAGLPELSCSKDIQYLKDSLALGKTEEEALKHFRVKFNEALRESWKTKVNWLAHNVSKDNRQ
Sequence of PI3Kδ (p110δ/p85α) Recombinant Human Protein (P27986 whole entry partner): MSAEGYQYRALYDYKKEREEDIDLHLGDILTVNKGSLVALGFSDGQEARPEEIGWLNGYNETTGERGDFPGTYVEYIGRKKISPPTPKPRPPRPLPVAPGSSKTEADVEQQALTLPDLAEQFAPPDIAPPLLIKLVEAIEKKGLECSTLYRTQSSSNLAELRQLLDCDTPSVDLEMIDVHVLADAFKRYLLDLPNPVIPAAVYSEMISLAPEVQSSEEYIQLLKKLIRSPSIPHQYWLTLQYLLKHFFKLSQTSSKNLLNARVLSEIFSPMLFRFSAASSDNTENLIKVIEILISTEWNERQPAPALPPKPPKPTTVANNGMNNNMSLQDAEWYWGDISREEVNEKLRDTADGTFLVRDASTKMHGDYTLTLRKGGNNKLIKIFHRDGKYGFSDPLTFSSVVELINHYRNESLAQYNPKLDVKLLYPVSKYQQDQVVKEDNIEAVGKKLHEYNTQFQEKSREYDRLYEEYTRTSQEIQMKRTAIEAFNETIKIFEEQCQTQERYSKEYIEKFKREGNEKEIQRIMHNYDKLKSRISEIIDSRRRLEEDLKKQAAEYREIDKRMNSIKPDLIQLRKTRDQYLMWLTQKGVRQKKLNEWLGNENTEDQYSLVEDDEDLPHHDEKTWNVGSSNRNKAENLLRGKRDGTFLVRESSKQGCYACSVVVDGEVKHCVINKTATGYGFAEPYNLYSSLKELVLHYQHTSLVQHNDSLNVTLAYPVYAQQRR
Excerpt: [γ-^33P]ATP (10 mCi/mL) and Wheat Germ Agglutinin (WGA) YSi SPA Scintillation Beads was purchased from Perkin-Elmer (Waltham, Mass.). Lipid kinase substrate, D-myo-Phosphatidylinositol 4,5-bisphosphate (PtdIns(4,5)P2)D (+)-sn-1,2-di-O-octanoylglyceryl, 3-O-phospho linked (PIP2), CAS 204858-53-7, was purchased from Echelon Biosciences (Salt Lake City, Utah). PI3Kδ (p110δ/p85α) Recombinant Human Protein was purchased from Eurofins (St Charles, Mo.). ATP, MgCl2, DTT, EDTA, MOPS and CHAPS were purchased from Sigma-Aldrich (St. Louis, Mo.).
The kinase reaction was conducted in polystyrene 384-well Greiner Bio-one white plate from Thermo Fisher Scientific in a final volume of 25 μL. Inhibitors were first diluted serially in DMSO and added to the plate wells before the addition of other reaction components. The final concentration of DMSO in the assay was 2%. The PI3Kδ assay was carried out at room temperature in 20 mM MOPS, pH 6.7, 10 mM MgCl2, 5 mM DTT and CHAPS 0.03%. Reactions were initiated by the addition of ATP, the final reaction mixture consisted of 20 μM PIP2, 2 μM ATP, 0.5 μCi [γ-^33P] ATP, 3.4 nM PI3Kδ. Reactions were incubated for 120 min and terminated by the addition of 40 μL SPA beads suspended in quench buffer: 163 mM potassium phosphate pH 7.8, 20% glycerol, 25 mM EDTA. The final concentration of SPA beads is 1.0 mg/mL. After the plate sealing, plates were shaken overnight at room temperature and centrifuged at 1500 rpm for 10 min, the radioactivity of the product was determined by scintillation counting on Topcount (Perkin-Elmer). IC50 determination was performed by fitting the curve of percent of the solvent control activity versus the log of the inhibitor concentration using the GraphPad Prism 6.0 software.

Sequence of PI3Kγ (p110γ) Recombinant Human Protein (P48736 whole entry): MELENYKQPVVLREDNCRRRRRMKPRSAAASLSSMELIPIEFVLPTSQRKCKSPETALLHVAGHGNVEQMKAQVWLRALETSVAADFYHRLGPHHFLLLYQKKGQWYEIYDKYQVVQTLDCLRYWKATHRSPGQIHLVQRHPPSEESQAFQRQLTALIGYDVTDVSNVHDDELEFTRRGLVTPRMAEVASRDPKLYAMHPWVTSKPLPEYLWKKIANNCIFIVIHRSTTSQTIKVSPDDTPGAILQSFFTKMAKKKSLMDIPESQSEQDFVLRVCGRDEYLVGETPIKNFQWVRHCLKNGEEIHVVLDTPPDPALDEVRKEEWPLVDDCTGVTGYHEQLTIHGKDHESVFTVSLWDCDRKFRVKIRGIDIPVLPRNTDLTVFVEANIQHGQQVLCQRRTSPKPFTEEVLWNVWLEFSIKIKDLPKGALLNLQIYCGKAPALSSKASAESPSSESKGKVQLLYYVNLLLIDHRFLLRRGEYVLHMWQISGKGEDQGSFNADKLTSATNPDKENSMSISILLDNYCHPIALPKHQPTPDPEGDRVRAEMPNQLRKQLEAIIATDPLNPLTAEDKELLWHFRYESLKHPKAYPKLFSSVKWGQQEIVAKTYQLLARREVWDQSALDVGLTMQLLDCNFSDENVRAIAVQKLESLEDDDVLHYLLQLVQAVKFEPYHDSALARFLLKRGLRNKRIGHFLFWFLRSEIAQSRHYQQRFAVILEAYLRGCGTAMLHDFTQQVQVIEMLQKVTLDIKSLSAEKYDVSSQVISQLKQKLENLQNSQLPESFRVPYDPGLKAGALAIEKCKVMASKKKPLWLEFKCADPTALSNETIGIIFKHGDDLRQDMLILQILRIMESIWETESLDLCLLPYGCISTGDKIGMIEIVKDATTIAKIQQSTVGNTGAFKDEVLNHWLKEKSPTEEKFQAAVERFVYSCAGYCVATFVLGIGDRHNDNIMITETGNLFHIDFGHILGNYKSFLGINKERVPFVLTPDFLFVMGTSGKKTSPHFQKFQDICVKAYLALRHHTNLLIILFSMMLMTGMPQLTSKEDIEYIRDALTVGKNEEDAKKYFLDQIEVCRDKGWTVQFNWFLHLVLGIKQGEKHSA

Structure (SMILES)	IC50 [1] [nM]	IC50 [2] [nM]
CC(C)S(=O)(=O)Nc1cncc(-c2ccc3nc(-c4nc5ccccc5[nH]4)oc3c2)c1 [Example 24, N-(5-(2-(1H-Benzo[d]imidazol-2-yl)benzo[d]oxazol-6-yl)pyridin-3-yl)propane-2-sulfonamide]	< 250	< 5000
CN(C)S(=O)(=O)Nc1cc(-c2ccc3nc(-c4nc5ccccc5[nH]4)oc3c2)cnc1F [Example 23, N′-{5-[2-(1H-Benzimidazol-2-yl)-1,3-benzoxazol-6-yl]-2-fluoropyridin-3-yl}-N,N-dimethylsulfamide]	< 250	< 250
COc1cncc(-c2ccc3nc(-c4ccc[nH]4)oc3c2)c1 [Example 3, 6-(5-Methoxypyridin-3-yl)-2-(1H-pyrrol-2-yl)benzo[d]oxazole trifluoroacetate]	< 5000	< 5000
CCS(=O)(=O)Nc1cc(-c2ccc3nc(-c4nc(C)c(C)[nH]4)oc3c2)cnc1OC [Example 65, N-(5-(2-(4,5-Dimethyl-1H-imidazol-2-yl)benzo[d]oxazol-6-yl)-2-methoxypyridin-3-yl)ethanesulfonamide bis(trifluoroacetate)]	< 250	< 250
OC(c1cncc(-c2ccc3nc(-c4nc5ccccc5[nH]4)oc3c2)c1)C(F)(F)F (centres unmarked) [Example 74, 1-(5-(2-(1H-Benzo [d]imidazol-2-yl)benzo [d]oxazol-6-yl)pyridin-3-yl)-2,2,2-trifluoroethanol bis(trifluoroacetate)]	< 250	< 250
Fc1ccc(-c2ccc3nc(-c4nc5ccccc5[nH]4)oc3c2)cc1F [Example 51, 2-(1H-Benzimidazol-2-yl)-6-(3,4-difluorophenyl)-1,3-benzoxazole trifluoroacetate]	< 250	≥ 5000
CP(C)(=O)c1cncc(-c2ccc3nc(-c4nc5ccccc5[nH]4)oc3c2)c1 [Example 72, 2-(1H-Benzo[d]imidazol-2-yl)-6-(5-(dimethyl-phosphoryl)pyridin-3-yl)benzo[d]oxazole bis(trifluoroacetate)]	< 250	< 5000
CN(C)S(=O)(=O)Nc1cncc(-c2ccc3nc(-c4nc5ccccc5[nH]4)oc3c2)c1 [Example 21, N′-{5-[2-(1H-Benzimidazol-2-yl)-1,3-benzoxazol-6-yl]-pyridin-3-yl}-N,N-dimethylsulfamide]	< 250	< 1000
CCS(=O)(=O)Nc1cc(-c2ccc3nc(-c4nc5ccccc5[nH]4)oc3c2)cnc1C [Example 25, N-(5-(2-(1H-Benzo[d]imidazol-2-yl)benzo[d]oxazol-6-yl)-2-methylpyridin-3-yl)ethanesulfonamide]	< 250	< 250
CCS(=O)(=O)Nc1cc(-c2ccc3nc(-c4nc5ccccc5[nH]4)oc3c2)ncc1F [Example 78, N-(2-(2-(1H-Benzo [d]imidazol-2-yl)benzo[d]oxazol-6-yl)-5-fluoropyridin-4-yl) ethanesulfonamide bis(trifluoroacetate)]	< 5000	< 5000
O=S(=O)(CC(F)(F)F)Nc1cc(-c2ccc3nc(-c4nc5ccccc5[nH]4)oc3c2)cnc1F [Example 75, N-(5-(2-(1H-Benzo [d]imidazol-2-yl)benzo[d]oxazol-6-yl)-2-fluoropyridin-3-yl)-2,2,2-trifluoro-ethanesulfonamide bis(trifluoroacetate)]	< 250	< 250
Cc1ncc(-c2ccc3nc(-c4nc5ccccc5[nH]4)oc3c2)cc1NS(=O)(=O)c1ccc(F)cc1 [Example 28, N-(5-(2-(1H-Benzo[d]imidazol-2-yl)benzo[d]oxazol-6-yl)-2-methylpyridin-3-yl)-4-fluorobenzenesulfonamide]	< 250	< 250
Cc1nc(-c2nc3ccc(-c4cncc(S(C)(=O)=O)c4)cc3o2)[nH]c1C [Example 62, 2-(4,5-Dimethyl-1H-imidazol-2-yl)-6-(5-(methylsulfonyl)pyridin-3-yl)benzo[d]oxazole bis(trifluoroacetate)]	< 1000	< 5000
CCS(=O)(=O)Nc1cncc(-c2ccc3nc(-c4ncc[nH]4)oc3c2)c1 [Example 40, N-(5-(2-(1H-Imidazol-2-yl)benzo[d]oxazol-6-yl)pyridin-3-yl)ethanesulf-onamide]	< 250	< 1000
COc1cncc(-c2ccc3nc(-c4nc5c(C)cccc5[nH]4)oc3c2)c1 [Example 12, 6-(5-Methoxypyridin-3-yl)-2-(4-methyl-1H-benzo[d]imidazol-2-yl)benzo[d]oxazole]	< 250	≥ 5000
Brc1ccc2nc(-c3nc4ccccc4[nH]3)oc2c1 [Example 13, 2-(1H-Benzo[d]imidazol-2-yl)-6-bromobenzo[d]oxazole]	< 5000	≥ 5000
COc1cncc(-c2ccc3nc(-c4cc(C)n[nH]4)oc3c2)c1 [Example 46, 6-(5-Methoxypyridin-3-yl)-2-(3-methyl-1H-pyrazol-5-yl)benzo[d]oxazole]	> 5000	≥ 5000
FC(F)Oc1cncc(-c2ccc3nc(-c4nc5ccccc5[nH]4)oc3c2)c1 [Example 16, 2-(1H-Benzo[d]imidazol-2-yl)-6-(5-(difluoromethoxy)pyridin-3-yl)benzo[d]oxazole]	< 250	< 1000
COc1cncc(-c2ccc3nc(-c4nc5ccccc5[nH]4)oc3c2)c1 [Example 4, 2-(1H-Benzo[d]imidazol-2-yl)-6-(5-methoxypyridin-3-yl)benzo[d]oxazole trifluoroacetate]	< 250	< 5000
CN(C)c1cncc(-c2ccc3nc(-c4nc5ccccc5[nH]4)oc3c2)c1 [Example 34, 5-(2-(1H-Benzo[d]imidazol-2-yl)benzo[d]oxazol-6-yl)-N,N-dimethylpyridin-3-amine]	< 250	< 5000
O=S(=O)(c1cncc(-c2ccc3nc(-c4nc5ccccc5[nH]4)oc3c2)c1)N1CCC(O)C1 (centres unmarked) [Example 58, 1-({5-[2-(1H-Benzimidazol-2-yl)-1,3-benzoxazol-6-yl]pyridin-3-yl}sulfonyl)pyrrolidin-3-ol bis(trifluoroacetate)]	< 250	< 1000
Cc1nc(-c2nc3ccc(-c4cncc(C(O)C(F)(F)F)c4)cc3o2)[nH]c1C (centres unmarked) [Example 67, 1-(5-(2-(4,5-Dimethyl-1H-imidazol-2-yl)benzo[d]oxazol-6-yl)pyridin-3-yl)-2,2,2-trifluoroethanol bis(trifluoroacetate)]	< 250	< 250
COc1cncc(-c2ccc3nc(-c4nc5ccccc5[nH]4)sc3c2)c1 [Example 6, 2-(1H-Benzo[d]imidazol-2-yl)-6-(5-methoxypyridin-3-yl)benzo[d]thiazole trifluoroacetate]	> 5000	≥ 5000
CCS(=O)(=O)Nc1cc(-c2ccc3nc(-c4nc5ccccc5[nH]4)oc3c2)cc(F)c1OC [Example 80, N-(5-(2-(1H-Benzo [d]imidazol-2-yl)benzo[d]oxazol-6-yl)-3-fluoro-2-methoxyphenyl) ethanesulfonamide bis(trifluoroacetate)]	< 250	< 5000
CCn1cc2ccc(-c3ccc4nc(-c5nc6ccccc6[nH]5)oc4c3)cc2n1 [Example 53, 2-(1H-benzimidazol-2-yl)-6-(2-ethyl-2H-indazol-6-yl)-1,3-benzoxazole bis(trifluoroacetate)]	< 250	≥ 5000
